Measurements as given in ChEMBL document CHEMBL4699397, “Development of potent CPP6-gemcitabine conjugates against human prostate cancer cell line (PC-3)” (RSC Med Chem, 2020).
*1 amine or outer side, *2 acyl side, *3 side chain or, on linkers, in order; H or OH if unused. Where a SMILES comes first, the peptide text is derived from it. The star is where a group is joined. X1 = O=c1nc(N*)ccn1[C@@H]1O[C@H](CO)[C@@H](O)C1(F)F; Suc = O=C(CCC(=O)[*:2])[*:1]

Experiments:
BXPC-3 = test: Cytotoxicity against human BXPC-3 cells assessed as inhibition of cell growth measured after 72 hrs by SRB assay; format: functional, cell-based; conditions: BXPC-3, 72 h
MCF7 = test: Cytotoxicity against human MCF7 cells assessed as inhibition of cell growth measured after 72 hrs by MTT assay; format: functional, cell-based; conditions: MCF7, 72 h
PC-3 = test: Cytotoxicity against human PC-3 cells assessed as inhibition of cell growth measured after 72 hrs by MTT assay; format: functional, cell-based; conditions: PC-3, 72 h
[1] = Half life of the compound; format: physicochemical

| Molecule | IC50 (BXPC-3) [nM] | IC50 (MCF7) [nM] | IC50 (PC-3) [nM] | half-life [1] [min] |
| --- | --- | --- | --- | --- |
| CSCC[C@H](NC(=O)[C@@H](NC(=O)[C@@H]1CCCN1C(=O)[C@H](CC(C)C)NC(=O)[C@H](CCCCN)NC(=O)[C@@H](N)Cc1c[nH]c2ccccc12)C(C)C)C(N)=O | > 1000 | 223 | > 1000 | – |
| CSCC[C@H](NC(=O)[C@@H](NC(=O)[C@@H]1CCCN1C(=O)[C@H](CC(C)C)NC(=O)[C@H](CCCCN)NC(=O)CCC(=O)Nc1ccn([C@@H]2O[C@H](CO)[C@@H](O)C2(F)F)c(=O)n1)C(C)C)C(=O)N[C@@H](Cc1c[nH]c2ccccc12)C(N)=O ({X1-Suc}-KLPVMW-NH2) | 170 | 6.9 | > 1000 | – |
| CSCC[C@H](NC(=O)[C@@H](NC(=O)[C@@H]1CCCN1C(=O)[C@H](CC(C)C)NC(=O)[C@H](CCCCN)NC(=O)[C@H](Cc1c[nH]c2ccccc12)NC(=O)CCC(=O)Nc1ccn([C@@H]2O[C@H](CO)[C@@H](O)C2(F)F)c(=O)n1)C(C)C)C(N)=O ({X1-Suc}-WKLPVM-NH2) | 180 | 5.1 | 15 | – |
| CC(C)C[C@H](NC(=O)[C@@H](NC(=O)[C@@H]1CCCN1C(=O)[C@@H](NC(=O)[C@H](Cc1c[nH]c2ccccc12)NC(=O)CCC(=O)Nc1ccn([C@@H]2O[C@H](CO)[C@@H](O)C2(F)F)c(=O)n1)C(C)C)[C@@H](C)O)C(=O)N[C@@H](CCCCN)C(N)=O ({X1-Suc}-WVPTLK-NH2) | 200 | 4 | 14 | – |
| Nc1ccn([C@@H]2O[C@H](CO)[C@@H](O)C2(F)F)c(=O)n1 [GEMCITABINE] | 130 | 1.4 | 74 | 8 |
| CN(C)C(=N)NC(=N)N [METFORMIN] | – | 9.9 | 189 | – |
| CC/C(=C(\c1ccccc1)c1ccc(OCCN(C)C)cc1)c1ccccc1 [TAMOXIFEN] | – | – | > 1000 | – |
| H-KLPVMW-NH2 | > 1000 | > 1000 | > 1000 | – |
| H-WVPTLK-NH2 | > 1000 | > 1000 | > 1000 | – |
